# According to patent publication US11559565B2, “Methods for treating inflammatory disorders and traumatic brain injury using stabilized non-hematopoietic EPO short peptides” (United States Government as Represented By The Department …, priority 2005, dated 2023):
# No end group written: not given here.
# Key:
# [1] = tested on: brain injured mice (controlled cortical impact); experiment: Controlled cortical impact traumatic brain injury, TUNEL positive cells in the injured hemisphere; conditions: for number of dying (TUNEL positive) cells: i.p. within 30 minutes of trauma for 3 days, both 3 and 8 days post injury, p<0.001 and p<0.01
# From the text: C57BL/6 mice were anesthetized with isofurane/oxygen inhalation and placed in a stereotaxic frame. The head position was established in the horizontal plane and a craniotomy (4 mm) was produced lateral to the sagittal suture between lambda and bregma, with the dura mater left intact over the cortex. A cortical contusion injury was produced utilizing a pneumatically driven 2.5 mm diameter rod tip at 3.5 m/s to a depth of 1 mm with a dwell time of 400 ms (Precision System Instruments TBI-0300 Impactor, Lexington, Ky.). After injury, a 5 mm disk constructed from dental cement was placed over the craniotomy site and adhered to the skull using cyanocrylate. During the early post-operative phase, animal temperature was maintained by placing the animals on heating pads.
# Mice in the whole molecule EPO group received 5000 U/kg body weight rhEPO (Epoetin alpha, Amgen, Thousand Oaks, Calif.) intraperitoneally (i.p.). […] Mice in the PBS and sham-operated groups received 200 μl filtered sterile PBS.
# Mice were sacrificed at 3 days or 8 days post-injury; brains were collected and immediately frozen on dry ice. The frozen brains were serially sectioned in coronal cuts onto 15 slides with 12 sections (16 μm thickness) per slide extending from the anterior to the posterior edge of the lesion. Sections were placed such that each individual slide contained a representative sampling of the entire lesion within the injured hemisphere.
# Cell death in the mouse brains was detected using a modification of the Apoptag® (Millipore, Billerica, Mass.) in situ TUNEL method. Cryosections (16 μm thickness) were mounted and fixed in 100% acetone for 10 minutes. The slides were rehydrated and post-fixed in 2:1 ethanol:acetic acid for 11 minutes at −20° C., and then washed thoroughly in Stop/Wash Buffer (Apoptag®). Slides were incubated with equilibration buffer for 10 minutes immediately followed by working strength TdT enzyme (33 parts enzyme/77 parts buffer (Apoptag®)) for 60 minutes at 37° C. The TUNEL reaction was detected with Cy3 anti-digox (1:200; Jackson Immunoresearch, West Grove, Pa.).
# Micrographs of the processed slides were acquired with a fluorescent Olympus BX60 microscope fitted with a Retiga 2000R digital camera at 10 times magnification. The total number of TUNEL positive cells in lesioned hemispheres and the total area of the brain containing the TUNEL positive cells were quantified using digital imaging software (I.P. lab 4.0, Becton Dickinson, Franklin Lakes, N.J.).
# The animals were sacrificed after 3 or 8 days and the injured forebrain lesions were serially sectioned. Cell death within the damaged hemisphere was quantified by DNA fragmentation (TUNEL stain) to determine the degree of neuroprotection. Serial sections containing the entire lesion site and the TUNEL labeled peri-lesional zone were photographed, digitized, and the images used to quantify the number of positive cells by IP lab 4.0 Software (Becton Dickinson, Franklin Lakes, N.J.).
# Mice were sacrificed 3 days post-TBI. The effect of treatment delay was determined by TUNEL staining.
# [2] = design: species or system SJL/J mice; conditions: mouse, in vivo
# Description: An EAE model was established in strain SJL/J mice that is characterized by a relapsing-remitting clinical course. Briefly, mice were immunized subcutaneously at the tail base with 100 μl (200 μg) myelin oligodendrocyte glycoprotein (MOG) peptide dissolved in distilled water and emulsified with an equal volume of complete Freund's adjuvant supplemented with 4 mg/ml Mycobacterium tuberculosis H37Ra. Immediately after immunization, animals received an intravenous injection of 200 ng Bordetella pertussis toxin in 200 μl PBS. Animals were weighed daily and assessed for clinical signs of EAE by two independent observers.
# Five mice per group were given either daily i.v. full length EPO (50-500 U/kg) or short EPO-peptide JM-4 peptide (250-500 μg/kg; 5-10 μg/mouse) in PBS, or PBS alone for 9 to 14 days. Blood was collected for 5 weeks to document changes in hematocrit.
# Hematocrit can be determined by centrifuging heparinized blood in a capillary tube (microhematocrit tube) at 10,000 rpm for 5 minutes. This separates the blood into layers. The volume of packed red blood cells, divided by the total volume of the blood sample gives the packed cell volume (PCV). Because a tube is used, this can be calculated by measuring the lengths of the layers.
# [3] = Deaths, clinical morbidity, blood chemistries and signs of toxicity in treated EAE mice; format: in vivo, SJL/J mice
# Description: An EAE model was established in strain SJL/J mice that is characterized by a relapsing-remitting clinical course. […] Immediately after immunization, animals received an intravenous injection of 200 ng Bordetella pertussis toxin in 200 μl PBS. Animals were weighed daily and assessed for clinical signs of EAE by two independent observers.
# […] Blood was collected for 5 weeks to document changes in hematocrit.
# EAE in SJL/J mice = experiment: PLP antigen-induced relapsing-remitting EAE, clinical score; format: in vivo
# Description: JM-4 peptide rapidly reduces neurologic deficit in EAE mice. […] Mice first were immunized with a suboptimal dose of PLP antigen (100 μg) on day 0; the mice developed clinical deficits, and were allowed to recover for about 21 days. Recovered EAE mice received 7 days of treatment with either cyclic JM-4 peptide (i.v. 250 ng/kg) or PBS (i.v.) before receiving a second PLP antigen immunization (100 μg).
# [4] = tested on: PLP antigen-induced symptomatic SJL/J EAE mice; experiment: Spinal cord pathology in EAE mice (mononuclear infiltration, SMI-32 staining); format: in vivo; conditions: treated 7 days
# Description: Groups of PLP antigen-induced symptomatic SJL/J EAE mice were treated with either JM-4 peptide or PBS for 7 days, and spinal cords were removed for pathologic examination.
# Monoclonal antibody (SMI-32) (Sternberger Monoclonal Antibodies, Lutherville, Md.) that reacts with a nonphosphorylated epitope in neurofilament H-was used. The reaction is masked when the epitope is phosphorylated. Briefly, frozen tissue sections (16 μm) were acetone-fixed for 10 minutes and air dried. Antigen retrieval was performed using 1× Target Unmasking Fluid (TUF) (Zymed Laboratories, San Francisco, Calif.). Slides were reacted with TUF at 95° C. for 10 minutes, then at room temperature (25° C.) for 10 minutes. SMI-32 primary antibody was diluted (1:5000) with 2% normal horse serum in PBS (1×) and reacted overnight at 4° C. Additional slides were processed without the primary antibody to provide an appropriate control. Slides then were washed twice with PBS (1×) for 3 minutes each wash, and reacted with a biotinylated anti-mouse antibody (Vector Laboratories, Burlingame, Calif.). The slides were washed twice (PBS (1×), 3 minutes each wash), reacted with an avidin-biotin/horseradish peroxidase complex (Vector Laboratories, Burlingame, Calif.) for 30 minutes at room temperature, and washed (PBS (1×), 3 minutes). Slides were visualized with Tyramide signal amplification/Cyanine-3 dye (Perkin Elmer, Waltham, Mass.) at 1:200 dilution in amplification buffer (Perkin Elmer, Waltham, Mass.). Slides then were mounted in glycerol and examined by fluorescence microscopy.
# Acute axonal injury in spinal long tract was assessed by SMI-32 staining for nonphosphorylated neurofilaments (FIG. 3, black DAB staining, bottom 2 panels).
# TBI mice = experiment: Simple Neuroassessment of Asymmetric Impairment (SNAP) after traumatic brain injury; format: in vivo, C57BL/6 mice; conditions: 10 days post-injury, versus vehicle treated TBI mice
# Description: SNAP is a scoring system, based on six tests, developed and validated to assess neurological deficits induced in a mouse model of traumatic brain injury. Mice are evaluated to assess neurological parameters for: (1) interaction with a handler, (2) cage grasp, (3) visual placing, (4) pacing/circling, (5) posture and head tilt, and (6) the baton test. The results from each of the six tests are summed to derive the overall SNAP score. SNAP scores are high when asymmetric deficits are apparent; thus, a neurologically intact animal would be expected to have a SNAP score of “0.” SNAP allows for ambiguous results (for example, a score of ‘1’) and test scores of 2 to 5 are assigned when asymmetric deficits were apparent. In addition, a range is allowed when the deficit appears to span more than one definition for a test score; ranges then are averaged to derive the test score (for example, a range of 2 to 3 would be scored as 2.5 for that test). […]
# An uninjured mouse would ambulate in a random pattern (for example, turning either to the right or turning to the left when facing a corner). An injured mouse was expected to ambulate in a consistent pattern (for example, consistently turn toward one direction, and not be readily coaxed in the opposite direction). […]
# The effect of JM-4 peptide therapy on neurologic deficits (SNAP scores) was evaluated 10 days post-injury by blinded observers.
# [5] = tested on: brain injured mice (controlled cortical impact); experiment: Summed area containing TUNEL positive cells within the lesioned hemisphere; format: in vivo, C57BL/6 mice; conditions: 3 days post-injury
# Description: The effect of JM-4 peptide therapy on the summed area containing TUNEL positive cells within the lesioned hemisphere was evaluated 3 days post-injury. In this experiment, the same TUNEL stained sections (from Example 5) used to quantify the number of TUNEL positive cells were used to quantify the total area containing dying cells within the injured hemisphere.
# [6] = tested on: acutely symptomatic EAE animals; experiment: JM-4 peptide therapy on acutely symptomatic EAE animals; format: in vivo; conditions: 4 days of therapy
# From the text: The effect of JM-4 peptide therapy on acutely symptomatic EAE animals was studied. Five sham-treated animals with EAE were compared to five EAE animals that had received 4 days of therapy with JM-4 peptide. The sham-treated animals were barely capable of moving their heads with marked four limb weakness. […] The JM-4 peptide treated animals have some neurologic residua (they have a waddling gait and their tails drag).
substance,measurement,setting,value
"Epoetin Alfa [rhEPO, reference compound]",number of dying (TUNEL positive) cells,[1],dramatically reduced
same,effect on hematocrit,[2],increased markedly within one week
same,clinical signs of toxicity,[3]; SJL/J mice treated with rhEPO,"developed red-blue ears and tails within 5 to 6 days, typically leading to death"
"GCAEHCSLNENITVPDTKV (also: cyclic, mode of cyclisation not given here) [JM-4]",clinical signs in response to the second PLP immunization,"EAE in SJL/J mice; after 7 days i.v. 250 ng/kg, versus sham, p<0.05",less severe clinical signs at a later time
same,disease severity in long term follow-up,"EAE in SJL/J mice; after discontinuation of all therapy for 30 days, p<0.001",much milder disease
same,clinical score versus sham treated (saline),"EAE in SJL/J mice; recovered EAE mice, 7 days i.v. 250 ng/kg, p<0.05",Marked clinical improvement
same,clinical score after a second seven-day treatment course,EAE in SJL/J mice; versus PBS sham treated animals,Clinical improvement again was observed
same,cell death judged by TUNEL positivity,[1]; 0.1 μg i.p. daily for 72 hours,failed to significantly block cell death
same,cell death judged by TUNEL positivity,[1]; 1 μg i.p. daily for 72 hours,failed to significantly block cell death
same,reduction of neural cell death (TUNEL),"[1]; 10 μg i.p., 3 days, FIG. 5A",~70%
same,TUNEL positive dying cells versus sham,"[1]; 10 μg i.p., first treatment 15 minutes post-injury",statistically significant neuroprotective effect
same,TUNEL positive dying cells versus sham,"[1]; 10 μg i.p., first treatment 3 hours post-injury",equally effective
same,TUNEL positive dying cells versus sham,"[1]; 10 μg i.p., first treatment 9 hours post-injury",equally effective
same,TUNEL positive dying cells versus sham,"[1]; 10 μg i.p., treatment delayed 24 hours",Very little treatment effect
same,cell death judged by TUNEL positivity,"[1]; 10 micrograms i.p. daily for 72 hours, p=0.005",significant protected against cell death
same,cell death judged by TUNEL positivity,"[1]; 50 micrograms i.p. daily for 72 hours, p=0.005",significant protected against cell death
same,cell death judged by TUNEL positivity,"[1]; 100 micrograms i.p. daily for 72 hours, p=0.005",significant protected against cell death
same,neuroprotection by TUNEL,"[1]; 8 days, FIG. 5B",neuroprotective
same,blocking cell death compared with whole molecule EPO,[1]; JM-4 10 μg i.p. versus EPO 5000 U/kg i.p.,at least as effective as using whole molecule EPO
same,cell death (TUNEL-positive cells),"[1]; PO by gavage, 100 micrograms daily, 3 hours after injury, p=0.01",effective blocking cell death
same,therapeutic window,[1]; following severe head trauma,at least 9 hours
same,number of dying (TUNEL positive) cells,[1],dramatically reduced
same,effect on hematocrit,[2],no effect on hematocrit
same,increase in red blood cell mass,[2],not associated with any increase in red blood cell mass
same,vacuolar changes,[4]; versus PBS,fewer vacuolar changes
same,white matter mononuclear infiltration,[4]; versus PBS,marked reduction
same,injured SMI-32 positive axons,[4]; versus sham,far fewer injured axons
same,neurologic deficits (composite SNAP score),TBI mice,significant improvement in neurologic deficits
same,signs of toxicity,"[3]; PLP EAE mice, JM-4 therapy i.v. 250 ng/kg",nor were any signs of toxicity observed
same,blood chemistries,[3]; small group treated for 7 days,remained unaltered
same,lesional area containing TUNEL positive cells,[5],much reduced
same,reduction of lesioned volume (area),"[5]; versus PBS, p<0.001",greater than 50%
same,neurologic state versus sham-treated animals,[6],mobile and markedly improved
